Measured values from patent US12728186B2, “Methods and kits for preparing pathogen-inactivated whole blood” (priority 2018, dated 2026).
“And” between values parts separate entries of the source, which are not always exact repeats. Equal values may be shown once.

Test: Residual unreacted amustaline by LCMS, Example 3 (1-container vs 3-container kits, PVC1/PVC2/EVA bags)
Assay type: physicochemical
Protocol: In another study, pathogen-inactivated whole blood was prepared using amustaline and GSH, in 1-container or 3-container kits of the present disclosure, with the 3-container kits comprising second and third bags (e.g., transfer/storage containers) from three different sources (e.g., different plastics materials). The three different transfer/storage containers included a 600 mL container, comprising Transfufol 3226 PVC film (“PVC1”), a second 600 mL container from a different manufacturer comprising Transfufol 3226 PVC film (“PVC2”), and a 750 mL container from Cerus, comprising EVA (ethylene-vinyl acetate) 1800 film (“EVA”). Six ABO-matched whole blood units in anticoagulant were pooled and split into seven units of ~450 mL each. The seven whole blood units were subjected to pathogen inactivation under conditions of no transfer step between containers (e.g., processing performed in the 1-container kit), or two transfer steps between containers (e.g., processing performed in the 3-container kits) of the indicated storage/transfer bag source (Table 4). Amustaline and GSH were added to the whole blood units as described previously by sterile docking of a filter set to the tubing of an input port of the first containers, which contained the whole blood. Unit 1 was treated with amustaline and GSH at 0.2 mM and 2.0 mM final concentrations, respectively, in the first container and incubated at 22° C., with samples taken at 18, 20, 22 and 24 hours, with no container transfers. For units 2-7, amustaline and GSH were added to the whole blood (0.2 mM and 2.0 mM final concentrations, respectively) in the first container, followed by transfer to the second container and incubation at 22° C. for 18 hours. At 18 hours, samples were taken along with transfer of the mixture to the third container and further incubation at 22° C., with additional sampling at 2 hour intervals (20, 22 and 24 hr).
All samples were analyzed by LCMS to determine the level of residual, unreacted amustaline as previously described. […] Following a second transfer (i.e., to third container) at 18 hr and further incubation at 22° C., residual amustaline was less than 1 nM at the 20 hr time point (i.e., 2 hours after bag transfer) for kits with two different container types and approaching 1 nM for kits with the third container type.

For `O=C(CCNc1c2ccccc2nc2ccccc12)OCCN(CCCl)CCCl` [amustaline], the “Residual amustaline levels in pathogen-inactivated whole blood, 18 hr” value (shortened to “Residual amustaline levels … 18 hr”) (18 hr (at transfer to third container), Units 2-3, 3 bag kit, 2x transfer, PVC1 transfer bags, 22° C.) was 1.75 nM and 1.52 nM, the “Residual amustaline levels … 18 hr” value (18 hr (at transfer to third container), Units 4-5, 3 bag kit, 2x transfer, PVC2 transfer bags, 22° C.) was 1.45 nM and 1.48 nM and the “Residual amustaline levels … 18 hr” value (18 hr (at transfer to third container), Units 6-7, 3 bag kit, 2x transfer, EVA transfer bags, 22° C.) was 3.11 nM and 3.51 nM. For the same compound, the “Residual amustaline levels … 18 hr” value (18 hr, Unit 1, 1 bag kit, no transfer, 22° C.) was 2.16 nM, the “residual amustaline at the 20 hr time point, kits with the third container type” value (20 hr (2 hours after bag transfer at 18 hr), 3-container kits, third container type, 22° C.) was ~1 nM and the “residual amustaline at the 20 hr time point, kits with two container types” value (20 hr (2 hours after bag transfer at 18 hr), 3-container kits, two different container types, 22° C.) was “less than 1 nM”. The “Residual amustaline levels in pathogen-inactivated whole blood, 20 hr” value (from here on “Residual amustaline levels … 20 hr”) (20 hr (third container from 18 hr), Units 2-3, 3 bag kit, 2x transfer, PVC1 transfer bags, 22° C.) was 0.88 nM and 0.78 nM, the “Residual amustaline levels … 20 hr” value (20 hr (third container from 18 hr), Units 4-5, 3 bag kit, 2x transfer, PVC2 transfer bags, 22° C.) was 0.85 nM and 0.87 nM and the “Residual amustaline levels … 20 hr” value (20 hr (third container from 18 hr), Units 6-7, 3 bag kit, 2x transfer, EVA transfer bags, 22° C.) was 1.14 nM and 1.22 nM. The “Residual amustaline levels … 20 hr” value (20 hr, Unit 1, 1 bag kit, no transfer, 22° C.) was 1.99 nM, the “Residual amustaline levels in pathogen-inactivated whole blood, 22 hr” value (“Residual amustaline levels … 22 hr” for short) (22 hr (third container from 18 hr), Units 2-3, 3 bag kit, 2x transfer, PVC1 transfer bags, 22° C.) was “BLOQ (BLOQ = Below Limit of Quantitation (e.g., <0.75 nM))” and the “Residual amustaline levels … 22 hr” value (22 hr (third container from 18 hr), Units 4-5, 3 bag kit, 2x transfer, PVC2 transfer bags, 22° C.) was “BLOQ (BLOQ = Below Limit of Quantitation (e.g., <0.75 nM))”. The “Residual amustaline levels … 22 hr” value (22 hr (third container from 18 hr), Units 6-7, 3 bag kit, 2x transfer, EVA transfer bags, 22° C.) was “BLOQ (BLOQ = Below Limit of Quantitation (e.g., <0.75 nM))”, the “level of residual amustaline at 22 hr and 24 hr, 3-container kits” value (22 hr and 24 hr (4 or 6 hours after bag transfer), all samples in 3-container kits, three container types) was “below the limit of quantitation” and the “Residual amustaline levels … 22 hr” value (22 hr, Unit 1, 1 bag kit, no transfer, 22° C.) was 1.46 nM. The “Residual amustaline levels in pathogen-inactivated whole blood, 24 hr” value (“Residual amustaline levels … 24 hr” for short) (24 hr (third container from 18 hr), Units 2-3, 3 bag kit, 2x transfer, PVC1 transfer bags, 22° C.) was “BLOQ (BLOQ = Below Limit of Quantitation (e.g., <0.75 nM))”, the “Residual amustaline levels … 24 hr” value (24 hr (third container from 18 hr), Units 4-5, 3 bag kit, 2x transfer, PVC2 transfer bags, 22° C.) was “BLOQ (BLOQ = Below Limit of Quantitation (e.g., <0.75 nM))” and the “Residual amustaline levels … 24 hr” value (24 hr (third container from 18 hr), Units 6-7, 3 bag kit, 2x transfer, EVA transfer bags, 22° C.) was “BLOQ (BLOQ = Below Limit of Quantitation (e.g., <0.75 nM))”. The “Residual amustaline levels … 24 hr” value (24 hr, Unit 1, 1 bag kit, no transfer, 22° C.) was 1.54 nM.
